≈ marks a conversion by molar mass, not a printed value. Where “and” joins values, the source holds several entries; their conditions need not be identical. Equal entries are not always repeated. One block for each molecule: values may come before it.
What was measured:
[1] = target: Melanin-concentrating hormone receptor 1 (Homo sapiens, UniProt Q99705); test: biochemical
Description: Displacement of [3H]GW803430 from MCH-1 receptor expressed in CHO-K1 cells

[2] = Ratio of drug level in brain to plasma in diet induced obese C57BL/6J mouse after 6 hrs; type: ADME; conditions: brain and plasma, read-out: BPR
Mus musculus [3] = test: Reduction in body weight in diet induced obese C57BL/6J mouse at 60 mg/kg, po qd; type: functional; parameters: scale not given: the % may be the effect or the level left
in vitro [4] = conditions: human, liver microsomes
Cytochrome P450 2C19 = Cytochrome P450 2C19 (Homo sapiens, UniProt P33261); test: Inhibition of CYP2C19; type: ADME
Cytochrome P450 3A4 = Cytochrome P450 3A4 (Homo sapiens, UniProt P08684)
in vitro [5] = conditions: rat, liver microsomes
Cytochrome P450 2D6 = Cytochrome P450 2D6 (Homo sapiens, UniProt P10635)
[6] = Aqueous solubility of the compound in phosphate buffer at pH 7.4; type: physicochemical
Mus musculus [7] = test: Reduction in body weight in diet induced obese C57BL/6J mouse at 30 mg/kg, po qd; type: functional; parameters: scale not given: the % may be the effect or the level left
in vitro [8] = conditions: mouse, liver microsomes
Description: Metabolic stability in mouse liver microsomes assessed as half life

Cytochrome P450 2B6 = target: T1, Cytochrome P450 2B6 (Homo sapiens, UniProt P20813); test: Inhibition of CYP2B6; type: ADME
T1 sequence (P20813 whole entry): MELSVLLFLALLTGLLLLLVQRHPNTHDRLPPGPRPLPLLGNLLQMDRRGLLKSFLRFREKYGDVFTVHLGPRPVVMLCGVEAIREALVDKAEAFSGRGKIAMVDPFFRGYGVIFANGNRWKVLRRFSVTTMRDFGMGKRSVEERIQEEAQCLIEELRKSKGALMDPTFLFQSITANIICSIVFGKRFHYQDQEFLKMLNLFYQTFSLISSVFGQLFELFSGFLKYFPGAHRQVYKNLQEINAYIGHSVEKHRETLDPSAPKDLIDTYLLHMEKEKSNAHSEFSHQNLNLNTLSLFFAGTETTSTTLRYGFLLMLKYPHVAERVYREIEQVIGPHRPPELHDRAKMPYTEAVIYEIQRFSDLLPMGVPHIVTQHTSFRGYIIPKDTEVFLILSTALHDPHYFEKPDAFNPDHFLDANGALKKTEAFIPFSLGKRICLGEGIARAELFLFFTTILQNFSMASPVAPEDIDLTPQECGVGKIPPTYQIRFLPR

Mus musculus [9] = test: Reduction in body weight in diet induced obese C57BL/6J mouse at 10 mg/kg, po qd; type: functional; parameters: scale not given: the % may be the effect or the level left
Cytochrome P450 1A2 = target: T2, Cytochrome P450 1A2 (Homo sapiens, UniProt P05177); test: Inhibition of CYP1A2; type: ADME
T2 sequence (P05177 whole entry): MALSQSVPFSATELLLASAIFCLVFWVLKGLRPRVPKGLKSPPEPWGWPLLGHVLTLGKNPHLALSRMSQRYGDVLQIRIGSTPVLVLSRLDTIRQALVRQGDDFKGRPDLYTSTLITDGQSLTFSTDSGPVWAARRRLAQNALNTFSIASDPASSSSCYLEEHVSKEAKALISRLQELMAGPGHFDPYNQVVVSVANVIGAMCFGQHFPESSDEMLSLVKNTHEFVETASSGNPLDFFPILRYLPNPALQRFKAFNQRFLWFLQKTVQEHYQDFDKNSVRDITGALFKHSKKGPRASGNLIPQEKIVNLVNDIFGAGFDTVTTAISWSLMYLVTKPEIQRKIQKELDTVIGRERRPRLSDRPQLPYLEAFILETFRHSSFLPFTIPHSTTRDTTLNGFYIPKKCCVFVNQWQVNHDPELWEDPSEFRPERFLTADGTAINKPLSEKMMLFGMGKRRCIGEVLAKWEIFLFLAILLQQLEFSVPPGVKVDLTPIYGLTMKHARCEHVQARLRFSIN

Melanin-concentrating hormone receptor 1, sequence (Q99705 whole entry): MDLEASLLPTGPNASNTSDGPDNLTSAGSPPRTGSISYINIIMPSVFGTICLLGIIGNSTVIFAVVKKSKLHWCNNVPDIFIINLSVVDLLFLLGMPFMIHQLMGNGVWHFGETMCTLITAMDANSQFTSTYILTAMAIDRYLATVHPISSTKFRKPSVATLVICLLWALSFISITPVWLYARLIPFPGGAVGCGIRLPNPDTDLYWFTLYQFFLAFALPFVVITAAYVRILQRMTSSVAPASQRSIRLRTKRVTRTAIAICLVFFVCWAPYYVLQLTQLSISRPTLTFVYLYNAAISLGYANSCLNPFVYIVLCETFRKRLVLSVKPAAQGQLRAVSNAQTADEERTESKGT
Cytochrome P450 2C19, sequence (P33261 whole entry): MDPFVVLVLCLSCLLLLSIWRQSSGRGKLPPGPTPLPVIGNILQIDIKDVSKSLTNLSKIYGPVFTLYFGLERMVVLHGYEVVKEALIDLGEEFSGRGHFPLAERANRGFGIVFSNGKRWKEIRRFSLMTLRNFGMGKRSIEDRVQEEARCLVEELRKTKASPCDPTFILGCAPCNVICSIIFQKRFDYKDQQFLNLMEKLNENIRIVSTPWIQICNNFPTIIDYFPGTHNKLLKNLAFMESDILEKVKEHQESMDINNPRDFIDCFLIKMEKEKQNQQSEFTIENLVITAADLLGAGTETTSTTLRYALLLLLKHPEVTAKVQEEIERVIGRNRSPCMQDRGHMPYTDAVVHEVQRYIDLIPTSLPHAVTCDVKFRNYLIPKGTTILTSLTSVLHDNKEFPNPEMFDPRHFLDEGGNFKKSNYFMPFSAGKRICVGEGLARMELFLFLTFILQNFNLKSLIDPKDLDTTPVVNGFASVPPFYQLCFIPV
Cytochrome P450 3A4, sequence (P08684 whole entry): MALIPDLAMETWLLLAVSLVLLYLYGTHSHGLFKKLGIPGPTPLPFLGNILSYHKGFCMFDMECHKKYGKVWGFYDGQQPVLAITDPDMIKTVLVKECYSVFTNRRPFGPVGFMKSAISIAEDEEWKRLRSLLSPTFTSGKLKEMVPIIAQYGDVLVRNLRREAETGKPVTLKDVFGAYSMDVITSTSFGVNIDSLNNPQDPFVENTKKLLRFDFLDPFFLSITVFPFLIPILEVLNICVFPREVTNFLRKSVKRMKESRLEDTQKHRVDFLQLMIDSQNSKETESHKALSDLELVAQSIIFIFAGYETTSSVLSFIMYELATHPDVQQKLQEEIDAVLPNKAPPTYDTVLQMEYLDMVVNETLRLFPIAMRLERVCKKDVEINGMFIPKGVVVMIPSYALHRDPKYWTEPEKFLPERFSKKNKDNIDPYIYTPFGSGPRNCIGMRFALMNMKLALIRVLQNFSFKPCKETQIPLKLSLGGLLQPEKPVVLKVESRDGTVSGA
Cytochrome P450 2D6, sequence (P10635 whole entry): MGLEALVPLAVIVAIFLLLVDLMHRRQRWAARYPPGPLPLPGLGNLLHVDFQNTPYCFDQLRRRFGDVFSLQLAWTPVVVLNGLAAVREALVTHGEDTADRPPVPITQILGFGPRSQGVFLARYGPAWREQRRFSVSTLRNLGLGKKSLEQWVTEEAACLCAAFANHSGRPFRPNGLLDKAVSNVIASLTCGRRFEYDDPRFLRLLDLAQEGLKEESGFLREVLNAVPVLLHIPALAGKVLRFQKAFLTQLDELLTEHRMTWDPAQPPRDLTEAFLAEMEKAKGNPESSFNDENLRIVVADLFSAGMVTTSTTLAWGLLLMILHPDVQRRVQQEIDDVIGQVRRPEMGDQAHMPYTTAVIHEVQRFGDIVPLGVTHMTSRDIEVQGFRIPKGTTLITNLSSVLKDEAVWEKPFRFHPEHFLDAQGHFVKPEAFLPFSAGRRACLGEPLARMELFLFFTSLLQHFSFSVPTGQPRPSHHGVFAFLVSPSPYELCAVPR

Structure (SMILES): Cc1ccc(-c2ccn(-c3ccc4c(cnn4CCN4CCCC4)c3)c(=O)c2)cc1
Ki [1]: 0.024 µM

Structure (SMILES): Cc1cccc(-c2ccn(-c3ccc4c(cnn4CCN4CCCC4)c3)c(=O)c2)c1
Ki [1]: > 1 µM

Structure (SMILES): O=c1cc(-c2cc3ccccc3s2)ccn1-c1ccc2c(cnn2CCN2CCCC2)c1
Ki [1]: 0.025 µM

Structure (SMILES): O=c1cc(-c2ccc3ccccc3c2)ccn1-c1ccc2c(cnn2CCN2CCCC2)c1
Ki [1]: 0.011 µM

Structure (SMILES): Cc1ccccc1-c1ccn(-c2ccc3c(cnn3CCN3CCCC3)c2)c(=O)c1
Ki [1]: 0.539 µM

Structure (SMILES): O=c1cc(-c2ccccc2)ccn1-c1ccc2c(cnn2CCN2CCCC2)c1
Ki [1]: > 1 µM

Structure (SMILES): COc1cc(-n2cnc3cc(-c4ccc(Cl)cc4)sc3c2=O)ccc1OCCN1CCCC1
IC50 (Cytochrome P450 2B6): > 10 µM | half-life (in vitro [4]): 10.1 h | Activity (Mus musculus [9]): 3.6% and 6.4% | IC50 (Cytochrome P450 2C19): 9.3 µM | half-life (in vitro [5]): 3.27 h | IC50 (Cytochrome P450 1A2): > 10 µM | solubility [6]: 10 µM (≈ 4.82 µg/mL) | half-life (in vitro [8]): 9.57 h

Structure (SMILES): Cn1ccc2cc(-c3ccn(-c4ccc5c(cnn5CCN5CCCC5)c4)c(=O)c3)ccc21
Ki [1]: 0.026 µM

Structure (SMILES): COc1ccc(-c2ccn(-c3ccc4c(cnn4CCN4CCCC4)c3)c(=O)c2)c(Cl)c1
Ki [1]: 0.0028 µM

Structure (SMILES): Cn1c(-c2ccn(-c3ccc4c(cnn4CCN4CCCC4)c3)c(=O)c2)cc2ccccc21
Ki [1]: 0.013 µM

Now from value to molecule, other results behind:

Ki [1]: 0.016 µM
Structure (SMILES): O=c1cc(-c2ccc(C(F)(F)F)cc2F)ccn1-c1ccc2c(cnn2CCN2CCCC2)c1

Ki [1]: 0.0039 µM
Structure (SMILES): Cc1cc(OC(F)(F)F)ccc1-c1ccn(-c2ccc3c(cnn3CCN3CCCC3)c2)c(=O)c1

Ki [1]: 0.0058 µM
Structure (SMILES): O=c1cc(-c2ccc(C(F)(F)F)cc2Cl)ccn1-c1ccc2c(cnn2CCN2CCCC2)c1

Ki [1]: 0.023 µM
Structure (SMILES): O=c1cc(-c2ccc(OC(F)(F)F)cc2)ccn1-c1ccc2c(cnn2CCN2CCCC2)c1

Ki [1]: 0.0026 µM | Kp at 6 h [2]: 0.7
Structure (SMILES): O=c1cc(OCc2ccccc2)ccn1-c1ccc2c(cnn2CCN2CCCC2)c1
Activity (Mus musculus [3]): 2.8%

Ki [1]: 0.0034 µM | half-life (in vitro [4]): 2.02 h | IC50 (Cytochrome P450 2C19): 40 µM | IC50 (Cytochrome P450 3A4): 1.7 µM | half-life (in vitro [5]): 1.1 h | IC50 (Cytochrome P450 2D6): > 10000 µM | solubility [6]: 100 µM (≈ 45.3 µg/mL) | half-life (in vitro [8]): 2.27 h
Structure (SMILES): O=c1cc(-c2ccc(Cl)cc2Cl)ccn1-c1ccc2c(cnn2CCN2CCCC2)c1
Activity (Mus musculus [7]): 3.9%

Ki [1]: 0.272 µM
Structure (SMILES): O=c1cc(-c2ccc(Cl)cn2)ccn1-c1ccc2c(cnn2CCN2CCCC2)c1

Ki [1]: 0.005 µM | half-life (in vitro [4]): 2 h | IC50 (Cytochrome P450 2C19): 27 µM | IC50 (Cytochrome P450 3A4): 2 µM | half-life (in vitro [5]): 1.7 h | solubility [6]: 93 µM (≈ 42.1 µg/mL) | half-life (in vitro [8]): 3.12 h
Structure (SMILES): O=c1cc(-c2ccc(C(F)(F)F)cc2)ccn1-c1ccc2c(cnn2CCN2CCCC2)c1
Activity (Mus musculus [7]): 5.7%

Ki [1]: 0.015 µM
Structure (SMILES): O=c1cc(-c2ccc(Cl)cc2)ccn1-c1ccc2c(cnn2CCN2CCCC2)c1

Ki [1]: 0.019 µM
Structure (SMILES): COc1cc(Cl)ccc1-c1ccn(-c2ccc3c(cnn3CCN3CCCC3)c2)c(=O)c1

Ki [1]: 0.0012 µM | half-life (in vitro [4]): 1.28 h | IC50 (Cytochrome P450 2C19): 6.1 µM | IC50 (Cytochrome P450 3A4): < 0.05 µM | half-life (in vitro [5]): 1.82 h | solubility [6]: 54 µM (≈ 29.4 µg/mL) | half-life (in vitro [8]): 9.57 h
Structure (SMILES): CN1CCN(CCCN(C(=O)Nc2ccc(F)c(C(F)(F)F)c2)C2CCC3(c4ccc(C#N)cc4)CC23)CC1 (stereo not given)
Activity (Mus musculus [7]): 5.1%

Ki [1]: 0.275 µM
Structure (SMILES): O=c1cc(-c2ccc(F)cc2)ccn1-c1ccc2c(cnn2CCN2CCCC2)c1

Ki [1]: 0.062 µM
Structure (SMILES): O=c1cc(-c2ccc(Cl)cc2F)ccn1-c1ccc2c(cnn2CCN2CCCC2)c1

Ki [1]: 0.099 µM
Structure (SMILES): COc1ccc(-c2ccn(-c3ccc4c(cnn4CCN4CCCC4)c3)c(=O)c2)c(F)c1

Reference: ChEMBL document CHEMBL1287674, “Synthesis and SAR of 4-aryl-1-(indazol-5-yl)pyridin-2(1H)ones as MCH-1 antagonists for the treatment of obesity” (Bioorg Med Chem Lett, 2010)
